The nature of data set [1]: AC voltammetry (capacitance-potential scans) of DOPC monolayer on hanging mercury drop electrode (HMDE) with analyte in electrolyte. As for the experimental part: The HMDE was based on using a capillary with a diameter of 0.1 mm so as to provide a surface area for the mercury drop about the same as the surface area of the mercury in the electrode in accordance with the invention.
Experiments were performed in 0.1M Kcl.

The conditions of data set [2]: for response of the electrode of the invention to the test compound (depression of capacitance peaks): 0.5 μmol dm^−3 in 0.1M KCl.
Procedure: The HMDE and the electrode of the invention were compared side-by-side in a static cell configuration. All experiments were carried out in 0.1 M potassium chloride solution. Measurements were taken at 75 Hz between −0.4 to −1.15 V with 4.95 mV rms at a scan rate of 5 mV
This Example compares a HMDE electrode with an electrode as produced in accordance with Example 3, both coated with a monolayer film of 1,2-dioleoyl-sn-glycero-3-phosphocholine (DOPC), new layers of which were deposited between consecutive scans. Experiments were performed in 0.1M Kcl. A negative going ‘forward’ potential scan was performed between −0.4 V and −1.15 V, and then followed immediately by a positive going ‘reverse’ scan from −1.15 V to −0.4 V with 4.95 mV rms at a scan rate of 5 mVs^−1.
The mark [3] stands for this setting: Pt/Hg electrode, DOPC monolayer, compared with HMDE.

For `NC(=O)c1cc[n+](COC[n+]2ccccc2C=NO)cc1` [H16], in data set [1] (5 μmol dm^−3), the “response of the HMDE to the test compound” value is listed as “large response”. In data set [2] (setting [3]), the “response of the electrode of the invention to the test compound (depression of capacitance peaks)” value is listed as “far greater response”. For the same compound, the “response of the electrode of the invention to the test compound” value in data set [2] (5 μmol dm^−3, Pt/Hg electrode, DOPC monolayer, compared with HMDE) is given as “slightly larger response”.

Turning to `CN(C)CCCN1c2ccccc2Sc2ccc(Cl)cc21` [chlorpromazine], in data set [2] (assuming a density for the solution of 1 g per ml), the “sensitivity converted to ppb” value is recorded as “approximately 18 ppb”.

Consider `CC(CN1c2ccccc2Sc2ccccc21)N(C)C` (stereo not drawn) [promethazine], for which, in data set [1] (0.5 μmol dm^−3 in 0.1M KCl), the “response of the HMDE to the test compound” value is “show response”. Further, in data set [2] (setting [3]), the “response of the electrode of the invention to the test compound (depression of capacitance peaks)” value is listed as “stronger response (greater depression of the peaks)”.

Values taken from US20160377571A1, “BIOSENSOR” (University of Leeds, priority 2007, published 2016).
